Measurements as given in the supplement of paper PMC10307832.

Tests used:
Test in all cases: relative viability (nuclei count vs DMSO), 5 days (fraction); higher = more cells survive
[1] = compound: CS(=O)(=O)c1ccc(C(=O)Nc2ccc(Cl)c(-c3ccccn3)c2)c(Cl)c1 [Vismodegib] + Cc1cc(Nc2cc(N3CCN(C)CC3)nc(Sc3ccc(NC(=O)C4CC4)cc3)n2)n[nH]1 [Tozasertib] (partner 0.1 µM)
In short: (§1)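 After 5 days of treatment, lung cancer cells in 1536-well plates were fixed and stained in a single step (final 0.05% Triton X-100, 1% formaldehyde, 1 ug/ml Hoechst) and their nuclei counted on 4× images. Treatment had been applied by pin tool the day after seeding as one drug alone or as a fixed anchor-drug dose with five library-drug doses (not always all listed) in √10 steps. Relative viability is the nuclei count of treated wells divided by that of vehicle wells, and values are medians of duplicate plates.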

[2] = compound: CS(=O)(=O)c1ccc(-c2cnc(N)c(C(=O)Nc3ccccc3)n2)cc1 [VE-821] + CC1(C)CCC(c2ccc(Cl)cc2)=C(CN2CCN(c3ccc(C(=O)NS(=O)(=O)c4ccc(N[C@H](CCN5CCOCC5)CSc5ccccc5)c(S(=O)(=O)C(F)(F)F)c4)cc3)CC2)C1 [Navitoclax] (partner 0.5 µM)
In short: as §1

[3] = compound: N#CC[C@H](C1CCCC1)n1cc(-c2ncnc3[nH]ccc23)cn1 [Ruxolitinib] + CC(C)C[C@H](NC(=O)[C@H](Cc1ccccc1)NC(=O)c1cnccn1)B(O)O [Bortezomib] (partner 0.002 µM)
In short: as §1

[4] = compound: CS(=O)(=O)c1ccc(-c2cnc(N)c(C(=O)Nc3ccccc3)n2)cc1 [VE-821] + Cc1nc(NC(=O)N2CCC[C@H]2C(N)=O)sc1-c1ccnc(C(C)(C)C(F)(F)F)c1 [Alpelisib] (partner 2 µM)
In short: as §1

## UMC-11
[1]; first compound 0.08 µM
  relative viability: 0.184
[1]; first compound 0.253 µM
  relative viability: 0.196
[1]; first compound 0.8 µM
  relative viability: 0.168
[1]; first compound 2.53 µM
  relative viability: 0.194
[1]; first compound 8 µM
  relative viability: 0.225
[2]; first compound 0.08 µM
  relative viability: 0.358
[2]; first compound 0.253 µM
  relative viability: 0.344
[2]; first compound 0.8 µM
  relative viability: 0.332
[2]; first compound 2.53 µM
  relative viability: 0.302
[2]; first compound 8 µM
  relative viability: 0.222
[3]; first compound 0.08 µM
  relative viability: 0.696
[3]; first compound 0.253 µM
  relative viability: 0.983
[3]; first compound 0.8 µM
  relative viability: 0.929
[3]; first compound 2.53 µM
  relative viability: 0.715
[3]; first compound 8 µM
  relative viability: 0.706
[4]; first compound 0.08 µM
  relative viability: 1.23
[4]; first compound 0.253 µM
  relative viability: 0.946
[4]; first compound 0.8 µM
  relative viability: 1.03
[4]; first compound 2.53 µM
  relative viability: 0.935
[4]; first compound 8 µM
  relative viability: 0.437
